# How the values were obtained:
# Z α1-antitrypsin [1] = biological target: T1, Z α1-antitrypsin (Homo sapiens, UniProt P01009, E366K/V237A); test: Secretion of Z α1-antitrypsin from iPSC-derived hepatocytes (ZZ genotype); type: cell-based; parameters: a random insertion of the human Z α1-antitrypsin gene; from tissue; host or cells: liver and plasma of Z α1-antitrypsin transgenic mice (human Z transgene)
# Procedure: In order to confirm that the potency and efficacy of Compound 1 in CHO-TET-ON-Z-A1AT was a reasonable estimate of what could be expected in hepatocytes with endogenous levels of expression, the effect of Compound 1 on the secretion and polymerisation of Z α1-antitrypsin was measured in iPSC-derived hepatocytes with the ZZ α1-antitrypsin genotype (Yusa et al. Nature. 2011; 478:391-4).
# Solubility in FaSSIF = type: physicochemical
# Z α1-antitrypsin [2] = biological target: T1, Z α1-antitrypsin; test: Intracellular Z α1-antitrypsin polymer formation in CHO-TET-ON-Z-A1AT cells (2C1 antibody); type: cell-based; parameters: expressed in transfected cells; host or cells: CHO Tet-On (CHO-K1) cells, doxycycline-induced
# Procedure: CHO Tet-On cells that conditionally express Z α1-antitrypsin (Ordóñez A et al. Hepatology 2013; 57(5):2049-60.) were simultaneously treated with 0.5 μg/mL […] and various concentrations of compounds for 48 hours in 6 well plates. Cells without doxycycline or treated with 1% v/v DMSO acted as controls. The cells were lysed and intracellular Z α1-antitrypsin polymer was evaluated by ELISA sandwich with the 2C1 monoclonal antibody (Miranda et al. Hepatology. 2010; 52:1078-88). Newly synthesised α1-antitrypsin was evaluated by growing cells induced to express Z α1-antitrypsin in DMEM without methionine (Met) and cysteine (Cys) for 1 h and then labelling with 1.3 MBq of ^35S-Met/Cys for 15 min. The cells were then rinsed and incubated in chase medium containing an excess of unlabeled Met and Cys for 0, 2 and 6 h. After the chase period, the medium was collected and cells were harvested. α1-Antitrypsin from the medium and cell lysates was immunoprecipitated with a polyclonal α1-antitrypsin antibody or the 2C1 monoclonal antibody that detects polymers by splitting each sample in two equal parts. Radiolabelled proteins were re-suspended in SDS loading buffer, boiled for 5 min, separated by 10% w/v acrylamide SDS-PAGE, and quantified by autoradiography.
# CHO-K1 cells were incubated with/without doxycycline to express α1-antitrypsin and with or without the small molecule of interest, fixed with 3.7% v/v formaldehyde in PBS for 15 min, permeabilised with 0.1% v/v Triton X-100 in PBS and then blocked with 10% v/v FBS in PBS for 30 min. Cells were labelled with a rabbit polyclonal antibody to total α1-antitrypsin or the 2C1 monoclonal antibody that detects polymers followed by Texan red conjugated anti-rabbit or FITC labelled anti-mouse secondary antibodies respectively. Cells were imaged using an Axiovert 200 widefield fluorescence microscope (Carl Zeiss Microimaging Inc., Thornwood, NY).
# Its ability to block Z α1-antitrypsin polymerisation in the ER during folding was assessed by adding Compound 1 to CHO-TET-ON-Z-A1AT cells (Ordóñez et al. Hepatology. 2013; 57(5):2049-60) with simultaneous induction of Z α1-antitrypsin expression using doxycycline. […] To investigate whether in addition to blocking polymerisation, Compound 1 was also able to increase secretion of Z α1-antitrypsin, Z α1-antitrypsin expression was induced in CHO-TET-ON-Z-A1AT cells, Compound 1 was added, and the total Z α1-antitrypsin in the supernatant was measured by immunoassay after 6 hours.
# [3] = In vitro clearance in cryopreserved hepatocytes, human; type: in vitro ADME
# α1-antitrypsin = test: End-point constant-temperature heat-induced polymerisation assay (non-denaturing PAGE); type: biochemical, human; conditions: constant-temperature experiment, versus absence
# Procedure: Resistance to heat-induced polymerisation was also determined using an end-point constant-temperature assay. Plasma purified M and Z α1-antitrypsin were diluted to 0.2 mg/ml in PBS with 5% v/v glycerol, incubated with 10 μM Compound 1 (or with DMSO alone) for 2 hours and then heated in 20 μl aliquots for a further 4 hours in a thermal cycler with a 48-65° C. gradient applied across the plate. Samples were analysed on a 3-12% w/v acrylamide Bis-Tris Native-PAGE gel (Life Technologies).
# Polymerisation of α1-antitrypsin occurs from a transient intermediate state known as M*, that is readily populated by the Z variant. One of the hallmarks of M* is its recognition by environment-sensitive fluorescent reporter dyes. Thermal shift assays that make use of the dye SYPRO Orange report the stability of the protein native state against heat-induced unfolding. […] Native state stability can also be probed by equilibrium unfolding using chemical denaturants, where a peak in bis-ANS fluorescence corresponds with a maximally populated unfolding intermediate.
# Permeability = type: in vitro ADME
# T1 sequence (P01009 25-418 V237A/E366K): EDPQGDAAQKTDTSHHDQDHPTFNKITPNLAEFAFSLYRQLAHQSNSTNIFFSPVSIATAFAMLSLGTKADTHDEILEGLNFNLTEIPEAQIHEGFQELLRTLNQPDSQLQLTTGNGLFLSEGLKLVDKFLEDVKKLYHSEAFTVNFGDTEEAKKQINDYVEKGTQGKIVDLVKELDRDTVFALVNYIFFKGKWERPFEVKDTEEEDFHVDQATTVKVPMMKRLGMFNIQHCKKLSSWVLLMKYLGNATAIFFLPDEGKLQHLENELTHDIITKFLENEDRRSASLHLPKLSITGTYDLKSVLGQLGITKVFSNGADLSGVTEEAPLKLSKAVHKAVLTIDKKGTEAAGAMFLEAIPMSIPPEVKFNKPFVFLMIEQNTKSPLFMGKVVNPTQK
structure (smiles),measurement,setting,value
"CCC[C@@H](NC(=O)c1cccc2c1CC(=O)N2)[C@@H](O)c1cccc(F)c1C [Compound 1, N-[(1S,2R)-1-(3-fluoro-2-methylphenyl)-1-hydroxypentan-2-yl]-2-oxo-2,3-dihydro-1H-indole-4-carboxamide]",increase of secreted levels of Z α1-antitrypsin,Z α1-antitrypsin [1],approximately 3 fold
same,EC50,"Z α1-antitrypsin [1]; read-out: pEC50, secretion of Z α1-antitrypsin (converted)",316 nM
same,solubility of amorphous drug substance in FaSSIF,Solubility in FaSSIF,good solubility
same,polymer formation in Z α1-antitrypsin expressing cells,"Z α1-antitrypsin [2]; 10 μM, CHO-TET-ON-Z-A1AT cells, tunicamycin experiment",completely abrogated
same,IC50,"Z α1-antitrypsin [2]; CHO-TET-ON-Z-A1AT cells, doxycycline induction, 2C1 antibody, read-out: pIC50, intracellular formation of Z α1-antitrypsin polymers (converted)",501 nM
same,intracellular formation of Z α1-antitrypsin polymers,"Z α1-antitrypsin [2]; CHO-TET-ON-Z-A1AT cells, in comparison with controls",completely blocked
same,EC50,Z α1-antitrypsin [2]; read-out: cellular activity at blocking Z α1-antitrypsin polymerisation (pEC50) (converted),501 nM
same,in vitro clearance in cryopreserved hepatocytes,[3],0.3 ± 0.05 mL/min/g
same,temperature at which oligomers are generated,α1-antitrypsin,higher temperatures
same,Permeability,Permeability,high
